System: HCI-016 (organoid from a triple-negative breast cancer xenograft)
Test: CTG-3D luminescence at 96 h relative to day-0 seeding control (ratio to day 0); higher = more growth / less cytotoxicity; PDxO 3D drug screen, 96 h, CTG-3D normalised to day-0 seeding control.
Conditions: 1 µM; days in culture: 153

SMILES	CTG-3D luminescence at 96 h
COc1cc2c(Oc3ccc4[nH]c(C)cc4c3F)ncnc2cc1OCCCN1CCCC1 [cediranib]	3.03
CC(C)n1nc(-c2ccc3oc(N)nc3c2)c2c(N)ncnc21 [sapanisertib]	0.922
Cc1cc(Nc2ncnc3ccc(NC4=NC(C)(C)CO4)cc23)ccc1Oc1ccn2ncnc2c1 [tucatinib]	2.19
C[C@H](NC(=O)CCC(F)(F)F)C(=O)N[C@@H]1C(=O)N(CCO)c2ncccc2-c2ccccc21 [crenigacestat]	2.21
C[C@]12CC[C@@H]3c4ccc(O)cc4C[C@@H](CCCCCCCCC[S+]([O-])CCCC(F)(F)C(F)(F)F)[C@H]3[C@@H]1CC[C@@H]2O (some centres not stated) [fulvestrant]	2.08
O=C(c1ccc(F)c(F)c1Nc1ccc(I)cc1F)N1CC(O)([C@@H]2CCCCN2)C1 [cobimetinib]	1.56
O=C(/C=C/c1cccnc1)NCCCCC1CCN(C(=O)c2ccccc2)CC1 [FK866]	0.0254
CS(=O)(=O)c1ccc(C(=O)Nc2ccc(Cl)c(-c3ccccn3)c2)c(Cl)c1 [vismodegib]	2.95
C=CCn1c(=O)c2cnc(Nc3ccc(N4CCN(C)CC4)cc3)nc2n1-c1cccc(C(C)(C)O)n1 [adavosertib]	0.264

Same assay, conditions: 1 µM; days in culture: 172

SMILES	CTG-3D luminescence at 96 h
COc1cc2c(Oc3ccc4[nH]c(C)cc4c3F)ncnc2cc1OCCCN1CCCC1 [cediranib]	1.55
CC(C)n1nc(-c2ccc3oc(N)nc3c2)c2c(N)ncnc21 [sapanisertib]	0.584
Cc1cc(Nc2ncnc3ccc(NC4=NC(C)(C)CO4)cc23)ccc1Oc1ccn2ncnc2c1 [tucatinib]	1.54
C[C@H](NC(=O)CCC(F)(F)F)C(=O)N[C@@H]1C(=O)N(CCO)c2ncccc2-c2ccccc21 [crenigacestat]	1.58
C[C@]12CC[C@@H]3c4ccc(O)cc4C[C@@H](CCCCCCCCC[S+]([O-])CCCC(F)(F)C(F)(F)F)[C@H]3[C@@H]1CC[C@@H]2O (some centres not stated) [fulvestrant]	1.72
O=C(c1ccc(F)c(F)c1Nc1ccc(I)cc1F)N1CC(O)([C@@H]2CCCCN2)C1 [cobimetinib]	1.38
O=C(/C=C/c1cccnc1)NCCCCC1CCN(C(=O)c2ccccc2)CC1 [FK866]	0.0259
CS(=O)(=O)c1ccc(C(=O)Nc2ccc(Cl)c(-c3ccccn3)c2)c(Cl)c1 [vismodegib]	2.13
C=CCn1c(=O)c2cnc(Nc3ccc(N4CCN(C)CC4)cc3)nc2n1-c1cccc(C(C)(C)O)n1 [adavosertib]	0.176

Same assay, conditions: 1 µM; days in culture: 190

SMILES	CTG-3D luminescence at 96 h
COc1cc2c(Oc3ccc4[nH]c(C)cc4c3F)ncnc2cc1OCCCN1CCCC1 [cediranib]	1.44
CC(C)n1nc(-c2ccc3oc(N)nc3c2)c2c(N)ncnc21 [sapanisertib]	0.464
Cc1cc(Nc2ncnc3ccc(NC4=NC(C)(C)CO4)cc23)ccc1Oc1ccn2ncnc2c1 [tucatinib]	1.57
C[C@H](NC(=O)CCC(F)(F)F)C(=O)N[C@@H]1C(=O)N(CCO)c2ncccc2-c2ccccc21 [crenigacestat]	0.838
C[C@]12CC[C@@H]3c4ccc(O)cc4C[C@@H](CCCCCCCCC[S+]([O-])CCCC(F)(F)C(F)(F)F)[C@H]3[C@@H]1CC[C@@H]2O (some centres not stated) [fulvestrant]	1.3
O=C(c1ccc(F)c(F)c1Nc1ccc(I)cc1F)N1CC(O)([C@@H]2CCCCN2)C1 [cobimetinib]	0.91
O=C(/C=C/c1cccnc1)NCCCCC1CCN(C(=O)c2ccccc2)CC1 [FK866]	0.0257
CS(=O)(=O)c1ccc(C(=O)Nc2ccc(Cl)c(-c3ccccn3)c2)c(Cl)c1 [vismodegib]	1.72
C=CCn1c(=O)c2cnc(Nc3ccc(N4CCN(C)CC4)cc3)nc2n1-c1cccc(C(C)(C)O)n1 [adavosertib]	0.0834

Same assay, conditions: 1 µM; days in culture: 199

SMILES	CTG-3D luminescence at 96 h
COc1cc2c(Oc3ccc4[nH]c(C)cc4c3F)ncnc2cc1OCCCN1CCCC1 [cediranib]	1.57
CC(C)n1nc(-c2ccc3oc(N)nc3c2)c2c(N)ncnc21 [sapanisertib]	0.511
Cc1cc(Nc2ncnc3ccc(NC4=NC(C)(C)CO4)cc23)ccc1Oc1ccn2ncnc2c1 [tucatinib]	1.78
C[C@H](NC(=O)CCC(F)(F)F)C(=O)N[C@@H]1C(=O)N(CCO)c2ncccc2-c2ccccc21 [crenigacestat]	1.78
C[C@]12CC[C@@H]3c4ccc(O)cc4C[C@@H](CCCCCCCCC[S+]([O-])CCCC(F)(F)C(F)(F)F)[C@H]3[C@@H]1CC[C@@H]2O (some centres not stated) [fulvestrant]	2.19
O=C(c1ccc(F)c(F)c1Nc1ccc(I)cc1F)N1CC(O)([C@@H]2CCCCN2)C1 [cobimetinib]	1.28
O=C(/C=C/c1cccnc1)NCCCCC1CCN(C(=O)c2ccccc2)CC1 [FK866]	0.0129
CS(=O)(=O)c1ccc(C(=O)Nc2ccc(Cl)c(-c3ccccn3)c2)c(Cl)c1 [vismodegib]	2.19
C=CCn1c(=O)c2cnc(Nc3ccc(N4CCN(C)CC4)cc3)nc2n1-c1cccc(C(C)(C)O)n1 [adavosertib]	0.172

Same assay, conditions: 10 µM; days in culture: 153

SMILES	CTG-3D luminescence at 96 h
COc1cc2c(Oc3ccc4[nH]c(C)cc4c3F)ncnc2cc1OCCCN1CCCC1 [cediranib]	0.161
CC(C)n1nc(-c2ccc3oc(N)nc3c2)c2c(N)ncnc21 [sapanisertib]	0.411
Cc1cc(Nc2ncnc3ccc(NC4=NC(C)(C)CO4)cc23)ccc1Oc1ccn2ncnc2c1 [tucatinib]	1.96
C[C@H](NC(=O)CCC(F)(F)F)C(=O)N[C@@H]1C(=O)N(CCO)c2ncccc2-c2ccccc21 [crenigacestat]	2.33
C[C@]12CC[C@@H]3c4ccc(O)cc4C[C@@H](CCCCCCCCC[S+]([O-])CCCC(F)(F)C(F)(F)F)[C@H]3[C@@H]1CC[C@@H]2O (some centres not stated) [fulvestrant]	2.62
O=C(c1ccc(F)c(F)c1Nc1ccc(I)cc1F)N1CC(O)([C@@H]2CCCCN2)C1 [cobimetinib]	1.38
O=C(/C=C/c1cccnc1)NCCCCC1CCN(C(=O)c2ccccc2)CC1 [FK866]	0.0134
CS(=O)(=O)c1ccc(C(=O)Nc2ccc(Cl)c(-c3ccccn3)c2)c(Cl)c1 [vismodegib]	1.79
C=CCn1c(=O)c2cnc(Nc3ccc(N4CCN(C)CC4)cc3)nc2n1-c1cccc(C(C)(C)O)n1 [adavosertib]	0.0723

Same assay, conditions: 10 µM; days in culture: 172

SMILES	CTG-3D luminescence at 96 h
COc1cc2c(Oc3ccc4[nH]c(C)cc4c3F)ncnc2cc1OCCCN1CCCC1 [cediranib]	0.397
CC(C)n1nc(-c2ccc3oc(N)nc3c2)c2c(N)ncnc21 [sapanisertib]	0.407
Cc1cc(Nc2ncnc3ccc(NC4=NC(C)(C)CO4)cc23)ccc1Oc1ccn2ncnc2c1 [tucatinib]	0.81
C[C@H](NC(=O)CCC(F)(F)F)C(=O)N[C@@H]1C(=O)N(CCO)c2ncccc2-c2ccccc21 [crenigacestat]	1.14
C[C@]12CC[C@@H]3c4ccc(O)cc4C[C@@H](CCCCCCCCC[S+]([O-])CCCC(F)(F)C(F)(F)F)[C@H]3[C@@H]1CC[C@@H]2O (some centres not stated) [fulvestrant]	1.14
O=C(c1ccc(F)c(F)c1Nc1ccc(I)cc1F)N1CC(O)([C@@H]2CCCCN2)C1 [cobimetinib]	0.776
O=C(/C=C/c1cccnc1)NCCCCC1CCN(C(=O)c2ccccc2)CC1 [FK866]	0.0131
CS(=O)(=O)c1ccc(C(=O)Nc2ccc(Cl)c(-c3ccccn3)c2)c(Cl)c1 [vismodegib]	1.47
C=CCn1c(=O)c2cnc(Nc3ccc(N4CCN(C)CC4)cc3)nc2n1-c1cccc(C(C)(C)O)n1 [adavosertib]	0.0497

Same assay, conditions: 10 µM; days in culture: 190

SMILES	CTG-3D luminescence at 96 h
COc1cc2c(Oc3ccc4[nH]c(C)cc4c3F)ncnc2cc1OCCCN1CCCC1 [cediranib]	0.423
CC(C)n1nc(-c2ccc3oc(N)nc3c2)c2c(N)ncnc21 [sapanisertib]	0.421
Cc1cc(Nc2ncnc3ccc(NC4=NC(C)(C)CO4)cc23)ccc1Oc1ccn2ncnc2c1 [tucatinib]	1.45
C[C@H](NC(=O)CCC(F)(F)F)C(=O)N[C@@H]1C(=O)N(CCO)c2ncccc2-c2ccccc21 [crenigacestat]	1.52
C[C@]12CC[C@@H]3c4ccc(O)cc4C[C@@H](CCCCCCCCC[S+]([O-])CCCC(F)(F)C(F)(F)F)[C@H]3[C@@H]1CC[C@@H]2O (some centres not stated) [fulvestrant]	0.96
O=C(c1ccc(F)c(F)c1Nc1ccc(I)cc1F)N1CC(O)([C@@H]2CCCCN2)C1 [cobimetinib]	0.962
O=C(/C=C/c1cccnc1)NCCCCC1CCN(C(=O)c2ccccc2)CC1 [FK866]	0.0168
CS(=O)(=O)c1ccc(C(=O)Nc2ccc(Cl)c(-c3ccccn3)c2)c(Cl)c1 [vismodegib]	1.66
C=CCn1c(=O)c2cnc(Nc3ccc(N4CCN(C)CC4)cc3)nc2n1-c1cccc(C(C)(C)O)n1 [adavosertib]	0.0505

Same assay, conditions: 10 µM; days in culture: 199

SMILES	CTG-3D luminescence at 96 h
COc1cc2c(Oc3ccc4[nH]c(C)cc4c3F)ncnc2cc1OCCCN1CCCC1 [cediranib]	0.0517
CC(C)n1nc(-c2ccc3oc(N)nc3c2)c2c(N)ncnc21 [sapanisertib]	0.374
Cc1cc(Nc2ncnc3ccc(NC4=NC(C)(C)CO4)cc23)ccc1Oc1ccn2ncnc2c1 [tucatinib]	1.38
C[C@H](NC(=O)CCC(F)(F)F)C(=O)N[C@@H]1C(=O)N(CCO)c2ncccc2-c2ccccc21 [crenigacestat]	1.57
C[C@]12CC[C@@H]3c4ccc(O)cc4C[C@@H](CCCCCCCCC[S+]([O-])CCCC(F)(F)C(F)(F)F)[C@H]3[C@@H]1CC[C@@H]2O (some centres not stated) [fulvestrant]	1.62
O=C(c1ccc(F)c(F)c1Nc1ccc(I)cc1F)N1CC(O)([C@@H]2CCCCN2)C1 [cobimetinib]	1.19
O=C(/C=C/c1cccnc1)NCCCCC1CCN(C(=O)c2ccccc2)CC1 [FK866]	0.013
CS(=O)(=O)c1ccc(C(=O)Nc2ccc(Cl)c(-c3ccccn3)c2)c(Cl)c1 [vismodegib]	2.01
C=CCn1c(=O)c2cnc(Nc3ccc(N4CCN(C)CC4)cc3)nc2n1-c1cccc(C(C)(C)O)n1 [adavosertib]	0.0306

Reference: the supplement of paper PMC8882468
